Consider two molecules from US9101620B2, “Polymorph of 3-(substituteddihydroisoindolinone-2-yl)-2,6-dioxopiperidine, and pharmaceutical compositions thereof” (Nanjing Cavendish Bio-Engineering Technology Co., Ltd., priority 2009, dated 2015).

The structures appear in SMILES notation.

Type in all cases: physicochemical
Series [1] is described as follows: Oxidation destruction (30% H2O2), related substances by HPLC. The conditions noted are these: for Major impurity, peak tR5.649-5.660 / Major impurity, peak tR10.372-10.401 / Major impurity, peak tR32.279-32.318 / Major impurity, peak tR35.063-35.098 / Total impurities generated by oxidation destruction: 30% H2O2, room temperature, 2 hour; for Chemical stability (in words): oxidating condition / oxidation destroy experiment. The method, then:
Oxidation destruction: 50 mg of sample weighted accurately was added into measuring flask of 100 mL, and 10 mL 30% H2O2 was added. After standing at room temperature for 2 hour, the mixture was diluted with mobile phase to scale and shook to be homogeneous, and determined by HPLC.
(§1) HPLC conditions and system applicability: octadecylsilane bonded silica as the filler; 0.01 mol/L of potassium dihydrogen phosphate (adjusted to pH 3.5 by phosphoric acid)-methanol-acetonitrile (80:15:5) as the mobile phase; detection wavelength was 240 nm; the number of theoretical plates should be not less than 2000, calculated according to the peak of lenalidomide. The resolution of the peak of 3-(4-amino-1-oxo-1,3-dihydro-2H-isoindole-2-yl)-piperidine-2,6-dione from the peaks of adjacent impurities should meet requirements.
(§2) Determination method: sample was dissolved in mobile phase to be the solution containing 0.5 mg per 1 mL. 20 μL of such solution was injected into liquid chromatograph and chromatogram was recorded until fourfold the retention time of major component peak. If there were impurities peaks in the chromatogram of sample solution, total impurities and sole impurity were calculated by normalization method on the basis of peak area.

Series [2] can be described thus: Destruction test: impurities in raw materials before destruction (HPLC). The conditions noted are these: for Total impurities in raw materials before destruction: HPLC peak area normalization.
From the text: The methods of destruction experiment of the Polymorph I of this invention (hereinafter referred to as “Polymorph I”) contrasting with the Polymorph A and B of 3-(4-amino-1-oxo-1,3-dihydro-2H-isoindole-2-yl)-piperidine-2,6-dione prepared by the method in CN 1871003A (hereinafter referred to as “Polymorph A” and “polymorph B”) and results of stability are followed:
as §1, §2

The nature of series [3]: Acid destruction (0.1 mol/L HCl), related substances by HPLC. The conditions noted are these: for Major impurity, peak tR4.717-4.737 / Major impurity, peak tR7.367-7.381 / Major impurity, peak tR11.067-11.100 / Total impurities generated by 0.1 mol/L acid destruction for 1 hour: 0.1 mol/L HCl, room temperature, 1 hour; for Chemical stability (in words): acid condition / 0.1 mol/L diluted HCl solution. Here is the method: Acid destruction: 50 mg of sample weighted accurately was added into measuring flask of 100 mL, and 10 mL 0.1 mol/L HCl solution was added. After standing at room temperature for 1 hour, an equal amount of 0.1 mol/L NaOH solution was added for neutralization. Then the mixture was diluted with mobile phase to scale and shook to be homogeneous, and determined by HPLC.
as §1, §2

For `Nc1cccc2c1CN(C1CCC(=O)NC1=O)C2=O` (single isomer, unassigned) [Polymorph A, 3-(4-amino-1-oxo-1,3-dihydro-2H-isoindole-2-yl)-piperidine-2,6-dione], in series [1], the “Major impurity, peak tR5.649-5.660” value was found to be 0.39%; the “Major impurity, peak tR10.372-10.401” value came to 0.08%; the “Major impurity, peak tR32.279-32.318” value was found to be 0.08%; the “Major impurity, peak tR35.063-35.098” value is 0.14%. For the same molecule, in series [1], the “Total impurities generated by oxidation destruction” value is reported as “impurities: 0.82%” and the “Chemical stability (in words)” value is recorded as “poor chemical stability”. In series [2], the “Major impurity, peak tR5.872-5.948” value was determined as 0.01%; the “Major impurity, peak tR6.847-6.855” value is 0.01%; the “Major impurity, peak tR10.961-11.165” value came out at 0.04%; the “Total impurities in raw materials before destruction” value was “impurities: 0.06%”. Further, in series [3], the “Major impurity, peak tR4.717-4.737” value was found to be 0.33%; the “Major impurity, peak tR7.367-7.381” value is reported as 0.72%; the “Major impurity, peak tR11.067-11.100” value was determined as 0.04%; the “Total impurities generated by 0.1 mol/L acid destruction for 1 hour” value is on record as “impurities: 1.13%”. Besides, the “Chemical stability (in words)” value in series [3] is reported as “poor chemical stability”.
`Nc1cccc2c1CN(C1CCC(=O)NC1=O)C2=O` (single isomer, unassigned) [Polymorph B, 3-(4-amino-1-oxo-1,3-dihydro-2H-isoindole-2-yl)-piperidine-2,6-dione]: in series [1], the “Major impurity, peak tR5.649-5.660” value is 0.36%; the “Major impurity, peak tR10.372-10.401” value is given as 0.11%; the “Major impurity, peak tR32.279-32.318” value is 0.10%; the “Major impurity, peak tR35.063-35.098” value worked out at 0.13%. In series [1], the “Total impurities generated by oxidation destruction” value was “impurities: 0.89%” and the “Chemical stability (in words)” value is recorded as “poor chemical stability”. In addition, in series [2], the “Major impurity, peak tR5.872-5.948” value is 0.01%; the “Major impurity, peak tR6.847-6.855” value is 0.01%; the “Major impurity, peak tR10.961-11.165” value amounted to 0.05%; the “Total impurities in raw materials before destruction” value is “impurities: 0.07%”. For the same molecule, in series [3], the “Major impurity, peak tR4.717-4.737” value was 0.33%; the “Major impurity, peak tR7.367-7.381” value is listed as 0.72%; the “Major impurity, peak tR11.067-11.100” value came out at 0.04%; the “Total impurities generated by 0.1 mol/L acid destruction for 1 hour” value is reported as “impurities: 1.22%”. Besides, the “Chemical stability (in words)” value in series [3] is reported as “poor chemical stability”.
